± gives the expanded uncertainty stated by the source.
Legend:
[1] = Crystal; DTA
[2] = Molar enthalpy of transition or fusion; details: Crystal; DSC

**Q.** For `CCOc1nc2cccc(C(=O)OC(C)OC(=O)OC3CCCCC3)c2n1Cc1ccc(-c2ccccc2)c(-c2nnn[nH]2)c1` (configuration not stated), which Normal melting temperature [1] is on record?
**A.** Its Normal melting temperature is 169 ± 1 °C.

**Q.** What about the “Molar enthalpy of transition or fusion” value [2] of the same compound?
**A.** The value was 27.7 ± 0.79 kJ/mol.

Source: the NIST ThermoML archive (doi:10.1016/j.fluid.2012.09.027)
